# Test results as given in patent US9346809B2 (LEO PHARMA A/S, priority 2009, dated 2016).
# pEC50: −log10 of the molar value. Where two headings read alike, the source gives them in different places.
# Experiments:
# Type in all cases: biochemical
# [1] = target: T1, JAK3 (catalytic domain, His-tag) (Homo sapiens, UniProt P52333); assay: JAK kinase assay (HTRF, phosphorylation of TK substrate-biotin), JAK3; conditions: ATP at Km (2 μM), read-out: JAK3 kinase inhibitory activity (EC50 indicator)
# T1 construct: All four purified enzymes contain only the catalytic domain; His (N); purchased Carna Biosciences, Inc; host or cells: baculovirus expression system
# In short: (§1)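 EC50 values come from HTRF signal of phospho-peptide detected by STK Ab Cryptate and Streptavidin-XL665 after overnight incubation. Reactions ran 20-30 min at RT in Hepes pH 7.0, 0.01% BSA, 1 mM DTT, with ATP at Km: 7, 4, 2 and 13 μM for JAK1, JAK2, JAK3, TYK2.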
# [2] = target: T2, JAK1 (aa 850-1154, catalytic domain, GST-tag) (Homo sapiens, UniProt P23458); assay: JAK kinase assay (HTRF, phosphorylation of TK substrate-biotin), JAK1; conditions: ATP at Km (7 μM), read-out: JAK1 kinase inhibitory activity (EC50 indicator)
# T2 construct: JAK1 (aa 850-1154) and TYK2 (aa 871-1187) are expressed with an N-terminally fused GST-tag; GST (N); purchased Carna Biosciences, Inc; host or cells: baculovirus expression system
# In short: as §1
# [3] = target: T3, TYK2 (aa 871-1187, catalytic domain, GST-tag) (Homo sapiens, UniProt P29597); assay: JAK kinase assay (HTRF, phosphorylation of TK substrate-biotin), TYK2; conditions: ATP at Km (13 μM), read-out: TYK2 kinase inhibitory activity (EC50 indicator)
# T3 construct: JAK1 (aa 850-1154) and TYK2 (aa 871-1187) are expressed with an N-terminally fused GST-tag; GST (N); purchased Carna Biosciences, Inc; host or cells: baculovirus expression system
# T3 sequence (P29597 871-1187): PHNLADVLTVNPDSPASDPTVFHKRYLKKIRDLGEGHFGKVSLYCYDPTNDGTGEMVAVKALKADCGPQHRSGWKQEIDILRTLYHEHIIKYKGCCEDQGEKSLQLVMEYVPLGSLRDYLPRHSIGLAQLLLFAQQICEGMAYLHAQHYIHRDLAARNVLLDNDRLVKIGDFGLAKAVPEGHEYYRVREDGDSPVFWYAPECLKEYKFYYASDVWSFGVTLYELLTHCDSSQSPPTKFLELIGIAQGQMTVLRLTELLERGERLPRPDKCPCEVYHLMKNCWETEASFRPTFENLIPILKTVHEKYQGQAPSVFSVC
# In short: as §1
# [4] = target: T4, JAK2 (catalytic domain, His-tag) (Homo sapiens, UniProt O60674); assay: JAK kinase assay (HTRF, phosphorylation of TK substrate-biotin), JAK2; conditions: ATP at Km (4 μM), read-out: JAK2 kinase inhibitory activity (EC50 indicator)
# T4 construct: All four purified enzymes contain only the catalytic domain; His (N); purchased Carna Biosciences, Inc; host or cells: baculovirus expression system
# In short: as §1
# T2 sequence (P23458 850-1154): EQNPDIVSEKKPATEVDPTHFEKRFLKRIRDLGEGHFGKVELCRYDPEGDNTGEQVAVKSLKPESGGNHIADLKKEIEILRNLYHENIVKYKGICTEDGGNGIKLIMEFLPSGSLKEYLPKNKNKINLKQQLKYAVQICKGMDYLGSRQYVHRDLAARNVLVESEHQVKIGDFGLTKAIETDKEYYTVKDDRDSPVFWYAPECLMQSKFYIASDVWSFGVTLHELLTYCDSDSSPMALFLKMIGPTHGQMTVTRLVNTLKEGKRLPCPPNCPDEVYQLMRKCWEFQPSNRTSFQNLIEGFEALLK
# T4 sequence (O60674 849-1124 limits assumed): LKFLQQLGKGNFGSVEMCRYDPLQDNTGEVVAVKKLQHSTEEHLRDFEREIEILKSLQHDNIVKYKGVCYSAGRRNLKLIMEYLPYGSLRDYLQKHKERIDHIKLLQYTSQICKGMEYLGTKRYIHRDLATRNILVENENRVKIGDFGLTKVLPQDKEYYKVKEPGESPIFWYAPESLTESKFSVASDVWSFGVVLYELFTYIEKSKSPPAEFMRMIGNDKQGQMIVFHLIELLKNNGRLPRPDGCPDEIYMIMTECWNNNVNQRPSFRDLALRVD
# T1 sequence (P52333 822-1111 limits assumed): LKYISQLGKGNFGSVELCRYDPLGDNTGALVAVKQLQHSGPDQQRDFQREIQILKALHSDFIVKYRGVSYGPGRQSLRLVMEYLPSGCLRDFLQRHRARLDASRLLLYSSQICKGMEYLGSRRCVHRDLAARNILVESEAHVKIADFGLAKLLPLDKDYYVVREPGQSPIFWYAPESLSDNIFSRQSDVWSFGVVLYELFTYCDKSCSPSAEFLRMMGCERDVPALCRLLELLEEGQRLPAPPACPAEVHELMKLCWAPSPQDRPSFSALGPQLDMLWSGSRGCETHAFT
Structure (SMILES),pEC50 [1],pEC50 [2],pEC50 [3],pEC50 [4],pEC50 ([1]; HTRF assay),pEC50 ([2]; HTRF assay),pEC50 ([3]; HTRF assay),pEC50 ([4]; HTRF assay)
"CS(=O)(=O)CCC(=O)N1CCN(c2ncnc3[nH]ccc23)CC12CC2 [Example 37, 3-Methanesulfonyl-1-[7-(7H-pyrrolo[2,3-d]pyrimidin-4-yl)-4,7-diazaspiro[2.5]oct-4-yl]propan-1-one]",6.30 to 7.00,> 7.00,< 6.30,> 7.00,,,,
"O=C(c1cccnc1)N1CCN(c2ncnc3[nH]ccc23)CC12CC2 [Example 42, Pyridin-3-yl-[7-(7H-pyrrolo[2,3-d]pyrimidin-4-yl)-4,7-diazaspiro[2.5]oct-4-yl]methanone]",6.30 to 7.00,> 7.00,< 6.30,> 7.00,,,,
"CC(=O)c1cc(C(=O)N2[C@@H]3CC[C@H]2CN(c2ncnc4[nH]ccc24)C3)cs1 [Example 112, 1-{4-[3-(7H-Pyrrolo[2,3-d]pyrimidin-4-yl)-3,8-diaza-bicyclo[3.2.1]octane-8-carbonyl]-thiophen-2-yl}-ethanone]",6.30 to 7.00,> 7.00,< 6.30,> 7.00,,,,
"Cc1ccc(C(=O)N2CCN(c3ncnc4[nH]ccc34)CC23CC3)cc1C(=O)Nc1cccc(C(F)(F)F)c1 [Example 41, 2-Methyl-5-[7-(7H-pyrrolo[2,3-d]pyrimidin-4-yl)-4,7-diazaspiro[2.5]octane-4-carbonyl]-N-(3-trifluoromethylphenyl)benzamide]",< 6.30,6.30 to 7.00,< 6.30,< 6.30,,,,
"COc1cc(C(=O)N2CCN(c3ncnc4[nH]ccc34)CC23CC3)ccc1S(N)(=O)=O [Example 378, 2-Methoxy-4-[7-(7H-pyrrolo[2,3-d]pyrimidin-4-yl)-4,7-diaza-spiro[2.5]octane-4-carbonyl]-benzenesulfonamide]",,,,,> 7.00,> 7.00,> 7.00,> 7.00
"N#CCCCC(=O)N1[C@@H]2CC[C@@H]1CN(c1ncnc3[nH]ccc13)C2 [Example 352, 5-Oxo-5-[3-(7H-pyrrolo[2,3-d]pyrimidin-4-yl)-3,8-diaza-bicyclo[3.2.1]oct-8-yl]-pentanenitrile]",,,,,6.30 to 7.00,> 7.00,< 6.30,> 7.00
"COCCCNC(=S)N1[C@@H]2CC[C@H]1CN(c1ncnc3[nH]ccc13)C2 [Example 39, 3-(7H-Pyrrolo[2,3-d]pyrimidin-4-yl)-3,8-diazabicyclo[3.2.1]octane-8-carbothioic acid (3-methoxy-propyl)amide]",< 6.30,< 6.30,< 6.30,6.30 to 7.00,,,,
"N#CCc1ccc(CC(=O)N2CCN(c3nc(N)nc4[nH]ccc34)CC23CC3)cc1 [Example 307, (4-{2-[7-(2-Amino-7H-pyrrolo[2,3-d]pyrimidin-4-yl)-4,7-diaza-spiro[2.5]oct-4-yl]-2-oxo-ethyl}-phenyl)-acetonitrile]",,,,,6.30 to 7.00,6.30 to 7.00,< 6.30,6.30 to 7.00
"O=C(Cc1ccc(F)cc1)N1CCN(c2ncnc3[nH]cc(Cl)c23)CC12CC2 [Example 320, 1-[7-(5-Chloro-7H-pyrrolo[2,3-d]pyrimidin-4-yl)-4,7-diaza-spiro[2.5]oct-4-yl]-2-(4-fluoro-phenyl)-ethanone]",,,,,6.30 to 7.00,6.30 to 7.00,< 6.30,> 7.00
"O=C(c1cccc2[nH]ccc12)N1CCN(c2ncnc3[nH]ccc23)CC12CC2 [Example 159, (1H-Indol-4-yl)-[7-(7H-pyrrolo[2,3-d]pyrimidin-4-yl)-4,7-diaza-spiro[2.5]oct-4-yl]-methanone]",6.30 to 7.00,> 7.00,6.30 to 7.00,> 7.00,,,,
"COCCNS(=O)(=O)c1ccc(C(=O)N2CCN(c3ncnc4[nH]ccc34)CC23CC3)cc1 [Example 396, N-(2-Methoxy-ethyl)-4-[7-(7H-pyrrolo[2,3-d]pyrimidin-4-yl)-4,7-diaza-spiro[2.5]octane-4-carbonyl]-benzenesulfonamide]",,,,,> 7.00,> 7.00,6.30 to 7.00,> 7.00

# Next, values leading:
pEC50 [1],pEC50 [2],pEC50 [3],pEC50 [4],pEC50 ([1]; HTRF assay),pEC50 ([2]; HTRF assay),pEC50 ([3]; HTRF assay),pEC50 ([4]; HTRF assay),Structure (SMILES)
6.30 to 7.00,> 7.00,< 6.30,> 7.00,,,,,"CS(=O)(=O)c1cccc(C(=O)N2C3CCC2CN(c2ncnc4[nH]ccc24)C3)c1 [Example 135, (3-Methanesulfonyl-phenyl)-[3-(7H-pyrrolo[2,3-d]pyrimidin-4-yl)-3,8-diaza-bicyclo[3.2.1]oct-8-yl]-methanone]"
,,,,> 7.00,> 7.00,> 7.00,> 7.00,"NS(=O)(=O)c1ccc(C(=O)N2CCN(c3ncnc4[nH]ccc34)CC23CC3)cc1 [Example 369, 4-[7-(7H-Pyrrolo[2,3-d]pyrimidin-4-yl)-4,7-diaza-spiro[2.5]octane-4-carbonyl]-benzenesulfonamide]"
,,,,6.30 to 7.00,6.30 to 7.00,< 6.30,> 7.00,"Cc1ccsc1C(=O)N1[C@@H]2CC[C@@H]1CN(c1ncnc3[nH]ccc13)C2 [Example 243, (3-Methyl-thiophen-2-yl)-[3-(7H-pyrrolo[2,3-d]pyrimidin-4-yl)-3,8-diaza-bicyclo[3.2.1]oct-8-yl]-methanone]"
> 7.00,> 7.00,> 7.00,> 7.00,,,,,"NS(=O)(=O)c1ccc(C(=O)N2CCN(c3ncnc4[nH]ccc34)CC23CC3)o1 [Example 198, 5-[7-(7H-Pyrrolo[2,3-d]pyrimidin-4-yl)-4,7-diaza-spiro[2.5]octane-4-carbonyl]-furan-2-sulfonic acid amide]"
> 7.00,> 7.00,6.30 to 7.00,> 7.00,,,,,"N#Cc1cccc(C(=O)N2[C@@H]3CC[C@@H]2CN(c2ncnc4[nH]ccc24)C3)c1 [Example 173, 3-[3-(7H-Pyrrolo[2,3-d]pyrimidin-4-yl)-3,8-diaza-bicyclo[3.2.1]octane-8-carbonyl]-benzonitrile]"
> 7.00,> 7.00,< 6.30,> 7.00,,,,,"CC(C)(C)OC(=O)N1CCN(c2ncnc3[nH]ccc23)CC12CC2 [Example 45, 7-(7H-pyrrolo[2,3-d]pyrimidin-4-yl)-4,7-diazaspiro[2.5]octane-4-carboxylic acid tert-butyl ester]"
6.30 to 7.00,> 7.00,6.30 to 7.00,> 7.00,,,,,"O=C(c1cc2ccccc2s1)N1CCN(c2ncnc3[nH]ccc23)CC12CC2 [Example 26, Benzo[b]thiophen-2-yl-[7-(7H-pyrrolo[2,3-d]pyrimidin-4-yl)-4,7-diazaspiro[2.5]oct-4-yl]methanone]"
6.30 to 7.00,> 7.00,< 6.30,> 7.00,,,,,"O=C(c1ccc(=O)[nH]c1)N1CCN(c2ncnc3[nH]ccc23)CC12CC2 [Example 56, 5-[7-(7H-Pyrrolo[2,3-d]pyrimidin-4-yl)-4,7-diazaspiro[2.5]octane-4-carbonyl]-1H-pyridin-2-one]"
,,,,< 6.30,6.30 to 7.00,< 6.30,> 7.00,"O=C(c1csc2ccccc12)N1CCN(c2ccnc3[nH]ccc23)CC12CC2 [Example 233, Benzo[b]thiophen-3-yl-[7-(1H-pyrrolo[2,3-b]pyridin-4-yl)-4,7-diaza-spiro[2.5]oct-4-yl]-methanone]"
6.30 to 7.00,6.30 to 7.00,< 6.30,6.30 to 7.00,,,,,"O=C(c1ncco1)N1[C@@H]2CC[C@@H]1CN(c1ncnc3[nH]ccc13)C2 [Example 177, Oxazol-2-yl-[3-(7H-pyrrolo[2,3-d]pyrimidin-4-yl)-3,8-diaza-bicyclo[3.2.1]oct-8-yl]-methanone]"
6.30 to 7.00,> 7.00,6.30 to 7.00,> 7.00,,,,,"O=C(c1ccccc1)N1CCN(c2ncnc3[nH]ccc23)CC12CC2 [Example 27, Phenyl-[7-(7H-pyrrolo[2,3-d]pyrimidin-4-yl)-4,7-diazaspiro[2.5]oct-4-yl]methanone]"
